Results: US7557136B2, “Pyrrolidine derivatives as oxytocin antagonists” (Laboratoires Serono SA, priority 2003, dated 2009)

Each compound was assayed against T1, human Oxytocin (hOT) receptor (Homo sapiens, UniProt P30559) (assay: In vitro competition binding assay on hOT receptor with scintillation proximity assay ([125I]-OVTA)). Conditions: membranes from HEK293EBNA cells expressing the hOT receptor; 0.2 nM [125I]-OVTA; SPA; read-out: Binding Affinity hOT-R (Ki [nM]).
T1 construct: expressed in transfected cells; host or cells: HEK293EBNA (membranes)
T1 sequence (P30559 1-389): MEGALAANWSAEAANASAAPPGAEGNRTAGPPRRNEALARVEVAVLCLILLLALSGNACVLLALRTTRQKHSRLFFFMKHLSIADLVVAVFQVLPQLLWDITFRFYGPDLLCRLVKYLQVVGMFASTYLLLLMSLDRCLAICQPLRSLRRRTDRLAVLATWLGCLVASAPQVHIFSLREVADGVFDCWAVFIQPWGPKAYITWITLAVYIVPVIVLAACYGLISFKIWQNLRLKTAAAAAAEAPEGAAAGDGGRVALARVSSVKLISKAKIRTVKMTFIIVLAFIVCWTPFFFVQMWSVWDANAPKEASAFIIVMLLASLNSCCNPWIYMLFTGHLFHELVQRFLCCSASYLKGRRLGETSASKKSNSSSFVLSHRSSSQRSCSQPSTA
Protocol: The compounds according to formula (I) may be subjected to the following assays: • a) In Vitro Competition Binding Assay on hOT Receptor with Scintillation Proximity Assay (11).
This assay allows to determine the affinity of the test compounds for the human Oxytocin (hOT) receptor. Membranes from HEK293EBNA (cells expressing the hOT receptor) were suspended in buffer containing 50 mM Tris-HCl, pH 7.4, 5 mM MgCl2 and 0.1% BSA (w/v). The membranes (2-4 μg) were mixed with 0.1 mg SPA bead coated with wheat-germ aglutinin (WGA-PVT-Polyethylene Imine beads from Amersham) and 0.2 nM of the radiolabelled [^125I]-OVTA (OVTA being Ornithin Vasoactive, an analogue of OT for competitive binding experiments). Non-specific binding was determined in the presence of 1 μM Oxytocin. The total assay volume was 100 μl. The plates (Corning® NBS plate) were incubated at room temperature for 30 min and counted on a Mibrobeta® plate scintillation counter. Competitive binding was performed in presence of compounds of formula (I) at the following concentrations: 30 μM, 10 μM, 1 μM, 300 nM, 100 nM, 10 nM, 1 nM, 100 pM, 10 pM. The competitive binding data were analysed using the iterative, nonlinear, curve-fitting program, “Prism” (GraphPad Software, Inc).
The ability of pyrrolidine derivatives of formula (I) to inhibit the binding of ^125I-OVTA to the OT-receptor was assessed using the above described in vitro biological assay. Representative values for some example compounds are given in Table I where the binding affinity of test compounds from the above examples is expressed by the inhibition constant (Ki; nM). From these values, it can be derived that said test compounds according to formula (I) do show a significant binding to the oxytocin receptor.

Row | Structure (SMILES) | Ki [nM]
1 | CON=C1C[C@@H](CC(=O)OC)N(C(=O)c2ccc(-c3ccccc3)cc2)C1 [Example 1, methyl [(2S,4EZ)-1-(biphenyl-4-ylcarbonyl)-4-(methoxyimino)pyrrolidin-2-yl]acetate] | 37
2 | CON=C1CC(CCC(=O)OC)N(C(=O)c2ccc(-c3ccccc3)cc2)C1 [Example 2, methyl 3-[(2R,4EZ)-1-biphenyl-4-ylcarbonyl)-4-(methoxyimino)pyrrolidin-2-yl]propanoate] | 144
3 | CON=C1C[C@@H](CC(=O)OC2CCCC2)N(C(=O)c2ccc(-c3ccccc3)cc2)C1 [Example 3, cyclopentyl [(2S,4EZ)-1-(biphenyl-4-ylcarbonyl)-4-(methoxyimino)pyrrolidin-2-yl]acetate] | 46

Second part, the compound after the results:

Row | Ki [nM] | Structure (SMILES)
4 | 67 | CON=C1CC(CC(=O)NC[C@H](O)c2ccccc2)N(C(=O)c2ccc(-c3ccccc3)cc2)C1 (stereo partly drawn) [Example 5]
5 | 77 | CON=C1C[C@@H](CCC(=O)NC[C@@H](O)c2ccccc2)N(C(=O)c2ccc(-c3ccccc3)cc2)C1 [Example 6, 3-[(2R,4EZ)-1-(biphenyl-4-ylcarbonyl)-4-(methoxyimino)pyrrolidin-2-yl]-N-[(2S)-2-hydroxy-2-phenylethyl]propanamide]
6 | 142 | CON=C1CC(CC(=O)N2CCOCC2)N(C(=O)c2ccc(-c3ccccc3)cc2)C1 [Example 9, (3EZ,5S)-1-(biphenyl-4-ylcarbonyl-5-(2-morpholin-4yl-2-oxoethyl)pyrrolidin-3-one O-methyloxime]
